Measurements published in patent US20040052799A1, “Nucleic acid and amino acid sequences relating to Helicobacter pylori for diagnostics and therapeutics” (Astra Aktiebolag, priority 1996, published 2004).
Like-named read-outs stand apart in the source and are kept apart here.

What was measured:
[1] = biological target: T1, H. pylori glutamate racemase (Helicobacter pylori, UniProt Q9ZLT0); experiment: Inactivation of glutamate racemase by L-serine-O-sulfate, single enzyme coupled assay; type: biochemical; conditions: 20 mM L-serine-O-sulfate, different incubation times, FIG. 7
T1 construct: made in house; host or cells: E. coli BL21(DE3) carrying pET-23-murI and pACYC-groE (GroES/GroEL co-expressed)
T1 sequence (Q9ZLT0 whole entry): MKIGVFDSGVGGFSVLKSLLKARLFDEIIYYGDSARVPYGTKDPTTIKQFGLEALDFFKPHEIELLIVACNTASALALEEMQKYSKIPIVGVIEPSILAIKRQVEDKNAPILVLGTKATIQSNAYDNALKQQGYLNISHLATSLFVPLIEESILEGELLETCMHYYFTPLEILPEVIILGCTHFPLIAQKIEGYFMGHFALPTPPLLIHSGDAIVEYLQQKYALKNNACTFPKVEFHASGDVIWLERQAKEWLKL
Protocol: In this assay, the conversion of D-glutamic acid to L-glutamic acid is coupled to the conversion of L-glutamic acid and NAD^+by L-glutamate dehydrogenase to 2-oxoglutarate, ammonia. The production of NADH is measured as an increase of absorbance at 340 nm (the reduction of NAD^+ to NADH) at 37° C. The standard assay mixture (adapted from Choi, S- Y, Esaki, N., Yoshimura, T., and Soda, K., 1991, Protein Expression and Purification 2, 90-93) contained 10 mM Tris-HCl, pH 7.5, 5 mM NAD+, 5 Units/ml L-glutamate dehydrogenase, varying concentrations of the substrate D-Glutamic Acid (0.063 mM to 250 mM), and the purified recombinant H. pylori enzyme glutamate racemase (1 μg to 50 μg). The reaction was started by the addition of either the substrate D-glutamic acid or the recombinant glutamate racemase after a preincubation at 37° C. for 5 minutes with all of the other assay ingredients. The change in absorbance at 340 nm was measured in a Spectra MAX 250. Initial velocities were derived from the initial slopes. […]
The H. pylori glutamate racemase was tested for inactivation with a sucuide inhibitor, L-serine-O sulfate, which is known to inhibit murI from E. coli. […] The initial velocity of purified recombinant H. pylroi murI protein was determined in the single enzyme coupled asssay following incubation with the inhibitor L-serine-O-sulfate (LSOS) at 20 mM for the times indicated on the x-axis. […]

H. pylori (strain AH244) = type: in vivo; conditions: BALB/c mice infected with strain AH244, 100 μg antigen + 10 μg CT orally, compared to control, FIGS. 3 and 4
H. pylori Asd = H. pylori Asd (Helicobacter pylori, UniProt Q9ZK28); experiment: Asd assay, reverse reaction, NADPH formation; conditions: read-out: Km for phosphate; pH 8.0
H. pylori Asd, sequence (Q9ZK28 whole entry): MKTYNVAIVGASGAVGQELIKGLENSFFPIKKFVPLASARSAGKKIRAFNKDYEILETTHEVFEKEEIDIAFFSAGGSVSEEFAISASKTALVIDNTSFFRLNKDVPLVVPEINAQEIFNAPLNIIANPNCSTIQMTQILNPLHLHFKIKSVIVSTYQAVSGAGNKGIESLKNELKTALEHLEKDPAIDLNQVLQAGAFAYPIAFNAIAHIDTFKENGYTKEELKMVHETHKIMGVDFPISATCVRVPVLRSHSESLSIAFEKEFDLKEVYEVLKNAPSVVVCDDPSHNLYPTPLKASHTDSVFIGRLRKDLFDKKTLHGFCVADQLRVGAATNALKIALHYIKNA
Protocol: (§1) The enzymatic activity of purified His-tagged H. pylori Asd (SEQ ID NO: 6545) was characterized by assaying the reverse reaction of phosphorylation of L-aspartate-β-semialdehyde (ASA) to L-p-aspartyl phosphate, with concomitant reduction of NADP^+ to NADPH. The formation of NADPH was detected by its absorbance, 340 nm, or by its fluorescence, excitation =340 nm, emission 455 nm.
(§2) ASA in 4 N HCl was prepared daily for use in Asd assays by partial neutralization with addition of 1.0 equivalent of […], with a resulting pH=1-2. The amount of ASA was determined enzymatically by complete reaction in the presence of excess NADP^+and phosphate. […] Assays were performed in the following buffer: 200 mM HEPES, 0.3 mM NADP^+, 30 mM NaH2PO4, 1.0 mM DTT, pH 7.5 or pH 8.0. ASA was used in the assay at concentrations of 5-165 μM by diluting the partially-neutralized ASA stock into the assay 10-200 fold, leading to a decrease in pH of 0.1 units or less. Reaction was initiated with the addition of enzyme to a final concentration of 3.5-70 nM.

E. coli Asd = biological target: T2, E. coli Asd (Escherichia coli, UniProt P0A9Q9); experiment: Asd assay, reverse reaction, NADPH formation; type: biochemical; conditions: pH 7.5; read-out: Km for phosphate
T2 construct: made in house; host or cells: E. coli HMS174 pLysS, pET28b
T2 sequence (P0A9Q9 1-367): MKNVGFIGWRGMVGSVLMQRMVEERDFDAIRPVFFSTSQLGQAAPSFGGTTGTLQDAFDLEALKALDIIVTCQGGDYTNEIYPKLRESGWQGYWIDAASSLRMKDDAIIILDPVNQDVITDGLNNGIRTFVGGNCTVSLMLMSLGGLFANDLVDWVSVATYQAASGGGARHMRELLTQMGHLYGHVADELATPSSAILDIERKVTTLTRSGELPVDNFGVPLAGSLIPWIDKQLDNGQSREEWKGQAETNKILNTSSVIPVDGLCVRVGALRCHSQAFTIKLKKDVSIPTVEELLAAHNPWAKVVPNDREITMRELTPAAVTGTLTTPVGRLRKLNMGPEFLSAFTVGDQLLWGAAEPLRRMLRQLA
Protocol: as §1, §2

[2] = Stability of ASA in solution; type: physicochemical
Protocol: ASA in 4 N HCl was prepared daily for use in Asd assays by partial neutralization with addition of 1.0 equivalent of […], with a resulting pH=1-2. The amount of ASA was determined enzymatically by complete reaction in the presence of excess NADP^+and phosphate. […] These observations are consistent with previous reports on the stability of ASA (Karsten et al., 1991, Biochim. Biophys. Acta 1077, 209-219). Assays were performed in the following buffer: 200 mM HEPES, 0.3 mM NADP^+, 30 mM NaH2PO4, 1.0 mM DTT, pH 7.5 or pH 8.0. ASA was used in the assay at concentrations of 5-165 μM by diluting the partially-neutralized ASA stock into the assay 10-200 fold, leading to a decrease in pH of 0.1 units or less. Reaction was initiated with the addition of enzyme to a final concentration of 3.5-70 nM.

Question: With `N[C@@H](COS(=O)(=O)O)C(=O)O` [L-Serine-O-Sulfate] as the compound, how does the “inactivation of glutamate racemase by the inhibitor (residual initial velocity)” value [1] read?
Answer: readily inactivated

Question: With “lacZ: non-Helicobacter pylori control protein (β-galactosidase from E. coli) constructed with a hexa-HIS tag [reference compound]” as the compound, how does the “degree of colonization of the antrum” value (H. pylori (strain AH244)) read?
Answer: higher Helicobacter colonization

Question: What about the “reduction and/or eradication of the H. pylori infection (therapeutic immunization effect)” value (H. pylori (strain AH244)) of the same compound?
Answer: no eradication effect

Question: What about the “degree of colonization of the antrum” value (H. pylori (strain AH244); listed as LacZ) of the same compound?
Answer: highest colonization in the antrum

Question: With phosphate [reference compound] as the compound, how does the Km (H. pylori Asd) read?
Answer: 2100 µM

Question: What about the Km (E. coli Asd) of the same compound?
Answer: 1300 µM

Question: For `N[C@@H](CC=O)C(=O)O` [ASA, L-aspartate-β-semialdehyde], which half-life ([2]; assay buffer, pH 7.7 (under assay conditions), read-out: t½ (converted)) is on record?
Answer: 5 h

Question: And the “time ASA found to be stable” value ([2]; pH 1.4)?
Answer: up to 48 hours
